Earlier results on 1 molecule are cited in US9744157B2, “Combinations of solifenacin and salivary stimulants for the treatment of overactive bladder” (TheraVida, Inc., priority 2011, dated 2017).

SMILES strings stand for the structures.

In the data set the test system is saliva output. The following applies: 5 mg of pilocarpine.

Take `CC[C@@H]1C(=O)OC[C@@H]1Cc1cncn1C` [pilocarpine]: the “time of maximum saliva output after administration” value was “about 30 minutes”.
